Reference: article PMC10122656, “Siglec-6 mediates the uptake of extracellular vesicles through a noncanonical glycolipid binding pocket” (Nature Communications, 2023)
Values joined by “and” are separate entries in the source; they are usually repeats but may differ in a detail not shown here. Equal entries are not always repeated.

Tests used:
Assay in all cases: Cell assay (liposome/EV binding, flow cytometry)
Assay type in all cases: cell-based
CD22 R120A CHO cells = target: T1, CD22 R120A CHO cells (Homo sapiens, UniProt P20273, R120A); settings: 3 mol% ganglioside liposomes, replicates
T1 construct: expressed in transfected cells
T1 sequence (P20273 20-847 R120A): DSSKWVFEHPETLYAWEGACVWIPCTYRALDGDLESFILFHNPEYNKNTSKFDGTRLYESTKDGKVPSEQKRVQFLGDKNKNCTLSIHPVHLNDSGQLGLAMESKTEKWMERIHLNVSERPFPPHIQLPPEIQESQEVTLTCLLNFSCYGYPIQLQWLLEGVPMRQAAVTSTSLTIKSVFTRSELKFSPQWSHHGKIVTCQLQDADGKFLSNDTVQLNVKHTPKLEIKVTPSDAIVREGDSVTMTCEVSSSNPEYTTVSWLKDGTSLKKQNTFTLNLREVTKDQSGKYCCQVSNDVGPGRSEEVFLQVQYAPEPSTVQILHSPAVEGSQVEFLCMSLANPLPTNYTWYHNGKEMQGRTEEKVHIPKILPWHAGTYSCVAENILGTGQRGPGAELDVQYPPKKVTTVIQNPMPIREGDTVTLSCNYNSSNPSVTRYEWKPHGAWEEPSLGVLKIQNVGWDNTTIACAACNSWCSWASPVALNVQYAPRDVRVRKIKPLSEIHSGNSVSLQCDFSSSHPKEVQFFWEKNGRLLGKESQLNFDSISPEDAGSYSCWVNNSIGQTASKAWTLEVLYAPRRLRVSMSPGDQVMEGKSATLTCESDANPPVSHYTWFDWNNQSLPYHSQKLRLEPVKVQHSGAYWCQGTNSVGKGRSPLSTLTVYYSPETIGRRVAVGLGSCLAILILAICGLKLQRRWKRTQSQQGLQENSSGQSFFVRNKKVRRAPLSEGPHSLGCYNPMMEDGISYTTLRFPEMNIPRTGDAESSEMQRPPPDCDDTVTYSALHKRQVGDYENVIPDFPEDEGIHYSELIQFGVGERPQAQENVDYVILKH
Method in brief: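 CHO cells expressing the indicated Siglec (wild-type or R-to-A mutant) were incubated 30 min at 37 °C with 50 µM fluorescent DSPC/cholesterol/PEG-DSPE liposomes (~130 nm, Siglec ligand-bearing) or 50 µg/mL EVs in DMEM F12 5% FBS. After washing and anti-Siglec staining on ice, binding was measured by flow cytometry on Siglec-positive gated cells.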

Siglec-1 R116A CHO cells = target: T2, Siglec-1 R116A CHO cells (Homo sapiens, UniProt Q9BZZ2, R116A); settings: Sig-1 R116A; 3 mol% ganglioside liposomes; replicates
T2 construct: expressed in transfected cells
T2 sequence (Q9BZZ2 20-1709 R116A): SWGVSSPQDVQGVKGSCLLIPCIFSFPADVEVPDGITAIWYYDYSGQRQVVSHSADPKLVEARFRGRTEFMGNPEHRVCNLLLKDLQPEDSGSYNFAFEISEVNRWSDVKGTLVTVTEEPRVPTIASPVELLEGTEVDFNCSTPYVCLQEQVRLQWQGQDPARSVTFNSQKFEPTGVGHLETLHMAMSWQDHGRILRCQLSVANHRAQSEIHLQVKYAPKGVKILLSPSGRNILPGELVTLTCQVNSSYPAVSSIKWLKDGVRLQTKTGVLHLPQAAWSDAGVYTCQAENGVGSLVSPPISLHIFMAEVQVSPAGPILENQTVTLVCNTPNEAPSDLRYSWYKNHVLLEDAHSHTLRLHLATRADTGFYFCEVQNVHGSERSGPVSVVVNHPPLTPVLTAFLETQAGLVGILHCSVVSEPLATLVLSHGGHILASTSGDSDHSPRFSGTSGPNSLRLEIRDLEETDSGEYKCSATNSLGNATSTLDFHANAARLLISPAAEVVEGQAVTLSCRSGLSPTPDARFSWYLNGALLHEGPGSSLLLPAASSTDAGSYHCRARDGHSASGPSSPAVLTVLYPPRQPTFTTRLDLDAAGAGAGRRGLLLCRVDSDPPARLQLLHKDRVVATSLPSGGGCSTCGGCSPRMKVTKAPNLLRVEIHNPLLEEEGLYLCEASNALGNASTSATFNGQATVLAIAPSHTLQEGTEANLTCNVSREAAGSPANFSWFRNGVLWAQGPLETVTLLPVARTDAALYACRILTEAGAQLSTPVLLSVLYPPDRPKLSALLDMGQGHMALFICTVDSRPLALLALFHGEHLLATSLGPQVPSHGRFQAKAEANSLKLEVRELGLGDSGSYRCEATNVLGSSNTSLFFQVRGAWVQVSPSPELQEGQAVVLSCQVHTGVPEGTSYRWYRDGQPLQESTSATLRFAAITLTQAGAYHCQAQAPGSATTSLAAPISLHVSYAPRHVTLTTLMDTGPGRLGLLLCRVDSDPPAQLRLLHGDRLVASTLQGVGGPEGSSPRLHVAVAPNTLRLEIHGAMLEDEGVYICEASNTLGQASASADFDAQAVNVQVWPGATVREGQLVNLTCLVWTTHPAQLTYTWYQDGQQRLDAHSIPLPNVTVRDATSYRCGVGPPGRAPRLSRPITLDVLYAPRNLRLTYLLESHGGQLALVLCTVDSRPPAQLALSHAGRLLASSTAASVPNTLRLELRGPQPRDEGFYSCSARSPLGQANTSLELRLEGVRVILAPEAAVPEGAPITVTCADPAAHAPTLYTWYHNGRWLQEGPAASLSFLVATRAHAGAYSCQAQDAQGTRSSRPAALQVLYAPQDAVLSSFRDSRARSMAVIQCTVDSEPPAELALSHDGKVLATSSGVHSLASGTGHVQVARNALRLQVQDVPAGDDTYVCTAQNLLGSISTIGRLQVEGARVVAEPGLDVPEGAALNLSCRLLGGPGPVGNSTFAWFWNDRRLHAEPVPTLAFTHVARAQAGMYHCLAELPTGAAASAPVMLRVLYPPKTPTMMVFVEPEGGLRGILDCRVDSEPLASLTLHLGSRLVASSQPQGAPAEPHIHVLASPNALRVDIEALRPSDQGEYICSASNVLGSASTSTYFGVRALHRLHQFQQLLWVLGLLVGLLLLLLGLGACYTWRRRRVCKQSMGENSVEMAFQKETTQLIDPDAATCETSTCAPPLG
Method in brief: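 Cells are incubated for 30 min at 37 °C with ligand-displaying liposomes (50 µM lipid) or EVs (50 µg/mL protein) in DMEM F12 containing 5% FBS. After washing and anti-Siglec staining on ice, liposome binding is quantified by flow cytometry within the Siglec-positive population.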

Siglec-9 R120A CHO cells = target: T3, Siglec-9 R120A CHO cells (Homo sapiens, UniProt Q9Y336, R120A); settings: Sig-9 R120A†; † after treatment of cells with neuraminidase; 3 mol% ganglioside liposomes; replicates
T3 construct: expressed in transfected cells
T3 sequence (Q9Y336 18-463 R120A): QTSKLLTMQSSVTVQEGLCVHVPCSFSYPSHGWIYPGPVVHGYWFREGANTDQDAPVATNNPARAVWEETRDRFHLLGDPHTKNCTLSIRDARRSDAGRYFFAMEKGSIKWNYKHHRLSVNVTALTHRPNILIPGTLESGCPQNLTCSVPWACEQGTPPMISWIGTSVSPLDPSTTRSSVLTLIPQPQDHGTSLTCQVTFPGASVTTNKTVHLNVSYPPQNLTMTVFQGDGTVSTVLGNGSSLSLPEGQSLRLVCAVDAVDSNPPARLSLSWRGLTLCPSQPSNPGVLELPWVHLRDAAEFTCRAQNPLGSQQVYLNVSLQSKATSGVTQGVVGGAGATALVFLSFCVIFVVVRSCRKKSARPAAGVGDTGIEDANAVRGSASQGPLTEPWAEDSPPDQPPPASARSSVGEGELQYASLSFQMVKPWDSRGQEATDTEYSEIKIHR
Procedure: (§1) Stock lipids (DSPC, Cholesterol, PEG45–DSPE) solutions were prepared by solvating the lipids in chloroform. An appropriate volume of each lipid solution was transferred to a glass test tube to reach the desired mol% of the component. The chloroform was then removed under N2 gas to yield a lipid thin film. Once dry, 100 µL of DMSO was added to the lipid-containing test tube and then the functional lipids (ganglioside, AF647–PEG45–DSPE, Siglec ligand–PEG45–DSPE, pHrodo–PEG45–DSPE, NGL) was added from their respect DMSO stock solution. The lipid mixture was then stored at −80 °C until completely frozen at which point excess DMSO was removed via lyophilization. Dry lipids were then stored at −80 °C until they were extruded. Lipid suppliers can be found in Supplementary Table 4.
(§2) Dry lipids were then hydrated in 1 mL of PBS. The lipids were then sonicated in a bath sonicator in a cycle of 1 min on, 5 min off for a total of five cycles. Liposomes were then extruded using an Avanti mini extruder first using an 800 nm filter and then a 100 nm filter yielding liposomes that were 130 ± 35 nm (Supplementary Table 5) measured using a Malvern Panalytical Zetasizer Nano S. Liposomes were stored at 4 °C.
(§3) 200,000 cells/well were plated into a 96-well U-bottom microplate and centrifuged at 300 × g for 5 min. The cells were then resuspended in 50 µL of 50 µM liposome/50 µg/mL (protein concentration) of EV solution in DMEM F12 5% FBS and incubated at 37 °C for 30 min. Excess liposomes were then removed via centrifuged at 300 × g for 5 min followed by washing the cells with FACS solution. The cells were then resuspended in (1:250 V/V) anti-Siglec-flow buffer (1% V/V FBS, 500 µM, EDTA Hank’s Balanced Salt Solution pH 7.4), solution and left to rest on ice for 30 min. The cells were then centrifuged again at 300 × g for 5 min and the cells were resuspended in FACS buffer solution and were then ready for analysis by flow cytometry. Information regarding antibody clone, catalog number supplier, label isotype, and dilution can be found in Supplementary Table 6. The Siglec-positive cells were gated on for liposome-binding analysis (Supplementary Fig. 1b).
(§4) Flow cytometry measurements were collected on a 5-laser Fortessa X-20 (BD Bioscience). All the resulting data were analyzed using FlowJo (10.5.3) software (BD Biosciences).
(§5) Cells were harvested and resuspended in complete media with either Neuraminidase A or S. The cells were then placed in a 37 °C shaking incubator for 1 h. The cells were then washed with complete media and then the liposome binding assay was performed as described above.

Siglec-4 R118A CHO cells = target: T4, Siglec-4 R118A CHO cells (Homo sapiens, UniProt P20916, R118A); settings: Sig-4 R118A†; † after treatment of cells with neuraminidase; 3 mol% ganglioside liposomes; replicates
T4 construct: expressed in transfected cells
T4 sequence (P20916 20-626 R118A): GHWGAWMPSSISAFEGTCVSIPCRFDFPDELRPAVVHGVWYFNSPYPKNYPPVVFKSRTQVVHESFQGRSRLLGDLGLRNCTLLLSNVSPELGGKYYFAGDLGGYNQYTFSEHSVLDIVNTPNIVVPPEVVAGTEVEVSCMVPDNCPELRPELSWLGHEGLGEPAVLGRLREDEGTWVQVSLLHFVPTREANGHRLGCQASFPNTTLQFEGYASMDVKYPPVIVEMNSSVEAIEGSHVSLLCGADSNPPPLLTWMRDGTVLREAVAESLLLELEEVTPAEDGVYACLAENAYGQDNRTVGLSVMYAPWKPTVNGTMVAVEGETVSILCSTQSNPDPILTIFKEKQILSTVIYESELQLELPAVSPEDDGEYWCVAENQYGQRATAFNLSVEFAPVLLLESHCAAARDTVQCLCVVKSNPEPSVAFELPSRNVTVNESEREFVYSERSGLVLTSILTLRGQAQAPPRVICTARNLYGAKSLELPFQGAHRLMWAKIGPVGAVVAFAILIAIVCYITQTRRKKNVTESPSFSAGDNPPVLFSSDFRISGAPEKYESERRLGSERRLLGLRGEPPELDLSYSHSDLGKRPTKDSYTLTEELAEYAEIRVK
Procedure: as §1, §2, §3, §4, §5

Siglec-7 R124A CHO cells = target: T5, Siglec-7 R124A CHO cells (Homo sapiens, UniProt Q9Y286, R124A); settings: Sig-7 R124A†; † after treatment of cells with neuraminidase; 3 mol% ganglioside liposomes; replicates
T5 construct: expressed in transfected cells
T5 sequence (Q9Y286 19-467 R124A): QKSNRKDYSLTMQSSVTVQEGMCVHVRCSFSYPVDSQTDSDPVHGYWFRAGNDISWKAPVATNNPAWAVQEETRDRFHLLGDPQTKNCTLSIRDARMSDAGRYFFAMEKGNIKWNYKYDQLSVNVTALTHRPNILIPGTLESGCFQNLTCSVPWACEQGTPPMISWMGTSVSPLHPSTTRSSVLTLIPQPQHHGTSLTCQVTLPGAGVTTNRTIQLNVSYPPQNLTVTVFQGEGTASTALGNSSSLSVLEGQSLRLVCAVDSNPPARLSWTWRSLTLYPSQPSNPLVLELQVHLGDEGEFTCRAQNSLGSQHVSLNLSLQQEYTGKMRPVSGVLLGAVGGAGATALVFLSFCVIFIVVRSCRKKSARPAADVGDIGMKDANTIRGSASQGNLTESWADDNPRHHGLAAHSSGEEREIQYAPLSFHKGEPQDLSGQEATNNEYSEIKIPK
Procedure: as §1, §2, §3, §4, §5

| Substance | log10(MFI AF647) of GLL relative to log10(MFI AF647) of the same GLL against UT CHO cells (Fig. 2a) (CD22 R120A CHO cells) | log10(MFI AF647) of GLL relative to log10(MFI AF647) of the same GLL against UT CHO cells (Fig. 2a) (Siglec-1 R116A CHO cells) | log10(MFI AF647) of GLL relative to log10(MFI AF647) of the same GLL against UT CHO cells (Fig. 2a) (Siglec-9 R120A CHO cells) | log10(MFI AF647) of GLL relative to log10(MFI AF647) of the same GLL against UT CHO cells (Fig. 2a) (Siglec-4 R118A CHO cells) | log10(MFI AF647) of GLL relative to log10(MFI AF647) of the same GLL against UT CHO cells (Fig. 2a) (Siglec-7 R124A CHO cells) |
| --- | --- | --- | --- | --- | --- |
| GD1a | 0.09 and 0.1 and 0.05 and 0.08 | -0.06 (2×) and -0.02 and -0.08 | 0.17 and 0.16 (3×) | 0 (2×) and 0.02 and 0.01 | -0.2 and -0.15 and -0.24 |
| GD1b | 0.03 and 0.02 and -0.01 and 0.01 | -0.26 (2×) and -0.25 and -0.21 | 0.12 (2×) and 0.14 (2×) | 0.08 and 0.05 and 0.02 and 0.03 | -0.23 (2×) and -0.27 |
| GD3 | 0.09 and 0.1 (2×) and 0.11 | -0.04 (2×) and -0.02 and 0.05 | 0.21 and 0.15 (2×) and 0.19 | -0.13 and -0.1 and -0.07 and -0.14 | -0.08 and -0.02 and -0.1 |
| GM1 | 0.06 and 0.04 and -0.02 and 0.03 | -0.21 and -0.24 and -0.22 and -0.2 | 0.14 and 0.1 (2×) and 0.16 | -0.3 and -0.31 (2×) and -0.32 | -0.08 and -0.05 and -0.01 |
| GM2 | 0.1 (2×) and 0.12 and 0.08 | -0.08 and -0.1 (2×) and -0.07 | 0.15 and 0.16 and 0.17 (2×) | 0 and -0.04 and -0.02 and -0.03 | -0.25 and -0.22 and -0.35 |
| GM3 | -0.15 and -0.16 and -0.17 and -0.18 | -0.19 and -0.23 and -0.18 and -0.21 | -0.21 and -0.17 and -0.15 and -0.13 | -0.24 and -0.19 (2×) and -0.2 | -0.45 and -0.31 and -0.25 |
| GM4 | 0.11 and 0.12 and 0.09 and 0.1 | -0.09 and -0.12 and -0.06 and -0.1 | 0.05 and 0.07 and 0.08 (2×) | -0.12 (2×) and -0.1 and -0.07 | -0.35 and -0.25 and -0.4 |
| GQ1b | -0.05 and -0.03 and -0.04 and -0.06 | -0.29 and -0.27 and -0.24 and -0.3 | 0.15 and 0.12 and 0.13 and 0.1 | -0.12 and -0.13 (2×) and -0.1 | 0.01 and -0.05 and -0.03 |
| GT1b | 0.05 and 0.04 (2×) and 0.06 | -0.14 (2×) and -0.15 and -0.1 | 0.16 (2×) and 0.11 and 0.15 | 0.12 and 0.1 and 0.13 and 0.14 | -0.17 and -0.19 and -0.09 |
